Measurements: PubChem BioAssay AID2060912 (Molecular Pharmacology Branch, DTP, NCI, 2025)

Tested on: HUVEC/MSC spheroids viability
Test: Human HUVEC/MSC cell line growth inhibition [KRAS2];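 on viability, T/C: percent of DMSO vehicle control luminescence so 100% = untreated viability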
Details: for IC50: curve of first compound; for viability, T/C: stronger effect = lower value
Description: Multicellular complex tumor spheroid response to RAS pathway inhibitors in combination with a targeted agents in patient-derived cell lines with oncogenic KRAS variants from multiple cancer types
A high-throughput screen of multi-cell type tumor spheroids was designed to identify active combinations of targeted small molecules and KRAS pathway inhibitors. Complex spheroids include a stromal component modeled by human endothelial cells (HUVEC) and fibroblasts modeled by human mesenchymal stem cells (MSCs). The concentration ranges selected for each drug and investigational agent were based upon clinically achievable concentrations if the clinical Cmax of the agent was known. * [This particular assayID is a followup dataset requested by reviewers of the manuscript. It is a test of the HUVEC and MSC without the tumor cells, and was conducted using different drug plates and a different plate layout.]
Compounds. The drugs and investigational agents: BI-3406 (NSC825286), BAY-293 (NSC824723), batoprotafib (TNO155; NSC825523), sotorasib (AMG 510; NSC818433), MRTX1257 (NSC819558), elimusertib (BAY 1895344; NSC800525), molibresib (GSK525762; NSC774829), temuterkib (LY3214996; NSC803410), venetoclax (NSC766270), alisertib (NSC759677), olaparib (NSC753686), talazoparib (NSC767125), erdafitinib (NSC781556), ipatasertib (NSC767898), cabozantinib (NSC761068), nintedanib (NSC756659), abemaciclib (NSC768073), docetaxel (NSC628503), trametinib (NSC758246), and sapanisertib (NSC764658) were obtained from the National Cancer Institute (NCI) Developmental Therapeutics Program Chemical Repository. The FDA-approved anticancer drug set is available from the Developmental Therapeutics Program. […] The stock solutions were prepared in dimethyl sulfoxide (DMSO, Sigma-Aldrich, St. Louis, MO, cat. D2650) at 800-fold the tested concentration and stored at -70 degrees C prior to their use. All drugs and investigational agents were tested over a range starting from a high concentration at or near the clinical Cmax and decreasing in half-log increments. If the clinical Cmax for an agent had not been determined, the highest concentration tested was 10 microM.
Cell Culture. All cells were maintained in an incubator at 37 degrees C and 5% CO2 with 95% humidity. The PDC lines were cultured according to standard operating procedures established by the NCI PDMR (https://pdmr.cancer.gov/sops/default.htm). Briefly, all PDCs were thawed and cultured in Matrigel-coated flasks prepared with a working solution of 1X Ham's F-12 nutrient mix, without supplementation (Invitrogen, Waltham, MA, cat. 11765054), 100 U/mL penicillin-streptomycin (Invitrogen, cat. 15140122), and 2.5% Matrigel (Corning Inc., Corning, NY, cat. 354248) for the first three passages. All PDCs were cultured in complete DMEM/F-12 media containing advanced DMEM/F-12 (Invitrogen, cat. 12634028), 4.9% defined fetal bovine serum, heat inactivated (HyClone Laboratories Inc., Logan, UT, cat. SH30070.03HI), 389 ng/mL hydrocortisone (Sigma-Aldrich, cat. H4001), 9.7 ng/mL human EGF recombinant protein (Invitrogen, cat. PHG0313), 23.4 microg/mL adenine (Sigma-Aldrich, cat. A2786), 97.3 U/mL penicillin-streptomycin (Invitrogen, cat. 15140122), 1.9 mM L-glutamine (Invitrogen, cat. 25030081), and 9.7 microM Y-27632 dihydrochloride (Tocris Bioscience, Bristol, United Kingdom, cat. 1254). The PDCs were cultured in complete DMEM/F12 media without 9.7 microM Y-27632 dihydrochloride for at least two passages prior to the screen. The established cell line HOP-62 was cultured in RPMI 1640 medium, HEPES (Invitrogen, cat. 22400105) with 10% defined fetal bovine serum (HyClone Laboratories Inc., cat. SH30070.03) and 2 mM L-glutamine (Invitrogen, cat. 25030081). The pooled donor HUVEC were cultured in endothelial cell growth medium 2 (PromoCell, Heidelberg, Germany, cat. C-22011) and the hMSC were cultured in mesenchymal stem cell growth medium 2 (PromoCell, cat. C-28009). […]

Structure (SMILES): Cn1ncnc1[C@H]1c2n[nH]c(=O)c3cc(F)cc(c23)N[C@@H]1c1ccc(F)cc1 + C=CC(=O)N1CCN(c2nc(OCC3CCCN3C)nc3c2CCN(c2cccc4cccc(C)c24)C3)CC1CC#N
- IC50 (second compound 0.00949 µM): > 100 nM
- IC50 (second compound 0.03 µM): > 100 nM
- IC50 (second compound 0.0949 µM): > 100 nM
- IC50 (second compound 0.3 µM): > 100 nM
- IC50 (second compound 0.949 µM): > 100 nM
- IC50 (second compound 3 µM): > 100 nM
- viability, T/C (second compound 0.00949 µM, first compound 0.000316 µM): 88%
- viability, T/C (second compound 0.00949 µM, first compound 0.001 µM): 103%
- viability, T/C (second compound 0.00949 µM, first compound 0.00316 µM): 85.6%
- viability, T/C (second compound 0.00949 µM, first compound 0.01 µM): 66.3%
- viability, T/C (second compound 0.00949 µM, first compound 0.0316 µM): 84.8%
- viability, T/C (second compound 0.00949 µM, first compound 0.1 µM): 85.2%
- viability, T/C (second compound 0.03 µM, first compound 0.000316 µM): 96.5%
- viability, T/C (second compound 0.03 µM, first compound 0.001 µM): 75.2%
- viability, T/C (second compound 0.03 µM, first compound 0.00316 µM): 77.3%
- viability, T/C (second compound 0.03 µM, first compound 0.01 µM): 77.9%
- viability, T/C (second compound 0.03 µM, first compound 0.0316 µM): 95.6%
- viability, T/C (second compound 0.03 µM, first compound 0.1 µM): 86.4%
- viability, T/C (second compound 0.0949 µM, first compound 0.000316 µM): 86.7%
- viability, T/C (second compound 0.0949 µM, first compound 0.001 µM): 100%
- viability, T/C (second compound 0.0949 µM, first compound 0.00316 µM): 75%
- viability, T/C (second compound 0.0949 µM, first compound 0.01 µM): 81.2%
- viability, T/C (second compound 0.0949 µM, first compound 0.0316 µM): 82.6%
- viability, T/C (second compound 0.0949 µM, first compound 0.1 µM): 78.6%
- viability, T/C (second compound 0.3 µM, first compound 0.000316 µM): 78.3%
- viability, T/C (second compound 0.3 µM, first compound 0.001 µM): 90.9%
- viability, T/C (second compound 0.3 µM, first compound 0.00316 µM): 75.7%
- viability, T/C (second compound 0.3 µM, first compound 0.01 µM): 71.9%
- viability, T/C (second compound 0.3 µM, first compound 0.0316 µM): 72.7%
- viability, T/C (second compound 0.3 µM, first compound 0.1 µM): 86.2%
- viability, T/C (second compound 0.949 µM, first compound 0.000316 µM): 61.8%
- viability, T/C (second compound 0.949 µM, first compound 0.001 µM): 74.2%
- viability, T/C (second compound 0.949 µM, first compound 0.00316 µM): 78.8%
- viability, T/C (second compound 0.949 µM, first compound 0.01 µM): 65.7%
- viability, T/C (second compound 0.949 µM, first compound 0.0316 µM): 74.9%
- viability, T/C (second compound 0.949 µM, first compound 0.1 µM): 63.1%
- viability, T/C (second compound 3 µM, first compound 0.000316 µM): 96.7%
- viability, T/C (second compound 3 µM, first compound 0.001 µM): 80.2%
- viability, T/C (second compound 3 µM, first compound 0.00316 µM): 88.3%
- viability, T/C (second compound 3 µM, first compound 0.01 µM): 88.5%
- viability, T/C (second compound 3 µM, first compound 0.0316 µM): 77.6%
- viability, T/C (second compound 3 µM, first compound 0.1 µM): 83.9%

Structure (SMILES): CC(=O)OC12COC1CC(O)C1(C)C(=O)C(O)C3=C(C)C(OC(=O)C(O)C(NC(=O)OC(C)(C)C)c4ccccc4)CC(O)(C(OC(=O)c4ccccc4)C21)C3(C)C (centres undefined) + CNCc1ccccc1-c1csc(C(C)Nc2nc(C)nc3cc(OC)c(OC)cc23)c1
- IC50 (second compound 0.0316 µM): < 9.49 nM
- IC50 (second compound 0.1 µM): < 9.49 nM
- IC50 (second compound 0.316 µM): 39.6 nM
- IC50 (second compound 1 µM): > 3000 nM
- IC50 (second compound 3.16 µM): > 3000 nM
- IC50 (second compound 10 µM): < 9.49 nM
- viability, T/C (second compound 0.0316 µM, first compound 0.00949 µM): 40.6%
- viability, T/C (second compound 0.0316 µM, first compound 0.03 µM): 40.6%
- viability, T/C (second compound 0.0316 µM, first compound 0.0949 µM): 49.7%
- viability, T/C (second compound 0.0316 µM, first compound 0.3 µM): 53%
- viability, T/C (second compound 0.0316 µM, first compound 0.949 µM): 49.1%
- viability, T/C (second compound 0.0316 µM, first compound 3 µM): 54.2%
- viability, T/C (second compound 0.1 µM, first compound 0.00949 µM): 44.2%
- viability, T/C (second compound 0.1 µM, first compound 0.03 µM): 43.3%
- viability, T/C (second compound 0.1 µM, first compound 0.0949 µM): 51.8%
- viability, T/C (second compound 0.1 µM, first compound 0.3 µM): 45.1%
- viability, T/C (second compound 0.1 µM, first compound 0.949 µM): 42.9%
- viability, T/C (second compound 0.1 µM, first compound 3 µM): 50%
- viability, T/C (second compound 0.316 µM, first compound 0.00949 µM): 44.8%
- viability, T/C (second compound 0.316 µM, first compound 0.03 µM): 56.5%
- viability, T/C (second compound 0.316 µM, first compound 0.0949 µM): 54.6%
- viability, T/C (second compound 0.316 µM, first compound 0.3 µM): 43.3%
- viability, T/C (second compound 0.316 µM, first compound 0.949 µM): 48.8%
- viability, T/C (second compound 0.316 µM, first compound 3 µM): 49%
- viability, T/C (second compound 1 µM, first compound 0.00949 µM): 47.3%
- viability, T/C (second compound 1 µM, first compound 0.03 µM): 62.2%
- viability, T/C (second compound 1 µM, first compound 0.0949 µM): 68.9%
- viability, T/C (second compound 1 µM, first compound 0.3 µM): 54.3%
- viability, T/C (second compound 1 µM, first compound 0.949 µM): 55.4%
- viability, T/C (second compound 1 µM, first compound 3 µM): 61.9%
- viability, T/C (second compound 3.16 µM, first compound 0.00949 µM): 78.1%
- viability, T/C (second compound 3.16 µM, first compound 0.03 µM): 73.5%
- viability, T/C (second compound 3.16 µM, first compound 0.0949 µM): 73.8%
- viability, T/C (second compound 3.16 µM, first compound 0.3 µM): 77.6%
- viability, T/C (second compound 3.16 µM, first compound 0.949 µM): 76.8%
- viability, T/C (second compound 3.16 µM, first compound 3 µM): 56.7%
- viability, T/C (second compound 10 µM, first compound 0.00949 µM): 0.32%
- viability, T/C (second compound 10 µM, first compound 0.03 µM): 0.36%
- viability, T/C (second compound 10 µM, first compound 0.0949 µM): 0.39%
- viability, T/C (second compound 10 µM, first compound 0.3 µM): 0.34%
- viability, T/C (second compound 10 µM, first compound 0.949 µM): 0.34%
- viability, T/C (second compound 10 µM, first compound 3 µM): 1.75%
